Converted amounts (≈) assume the structure as drawn. Where two headings read alike, the source gives them in different places.
Key:
Mtb [1] = experiment: microbe, parasite or virus in culture; assay type: cell-based, Mycobacterium tuberculosis; settings: for MIC: Mycobacterium tuberculosis, read-out: MIC (II)
in vitro = settings: African green monkey
Mtb [2] = experiment: microbe, parasite or virus in culture; assay type: cell-based, Mycobacterium tuberculosis; settings: Mycobacterium tuberculosis, read-out: MIC (I)
Mtb [3] = experiment: microbe, parasite or virus in culture; assay type: cell-based, Mycobacterium tuberculosis; settings: Mycobacterium tuberculosis, read-out: MIC (III)

With `CCOC(=O)NC(=O)c1ccsc1NC(=O)c1ccnc(NS(=O)(=O)c2ccc(C)cc2)c1` [Compound 153] the MIC (Mtb [1]) was > 3 µg/mL.
With `CC(=O)Nc1cc(C(=O)Nc2nnc(C(F)(F)F)s2)ccn1` [Compound 190] the MIC (Mtb [1]) was > 3 µg/mL.
For `CNC(=O)c1ccsc1NC(=O)c1ccnc(NC(C)=O)c1` [Compound 183], the MIC (Mtb [1]) was > 3 µg/mL.
For `CCOC(=O)NC(=O)c1ccsc1NC(=O)c1ccncc1` [Compound 170], the MIC (Mtb [1]) was > 3 µg/mL.
With `CCOC(=O)NC(=O)c1ccsc1NC(=O)c1nc(C)cs1` [Compound 161] the MIC (Mtb [1]) was > 3 µg/mL.
In the case of `CCOC(=O)NC(=O)c1ccsc1NC(=O)c1c(F)ccc(C)c1F` [Compound 175], the MIC (Mtb [1]) is reported as > 3 µg/mL.
With `CCOC(=O)NC(=O)c1ccsc1NC(=O)c1ccnc(N(C)C)c1` [Compound 168] the MIC (Mtb [1]) was > 3 µg/mL.
In the case of `CC(=O)Nc1cc(C(=O)Nc2sccc2C(=O)N2CCCCC2)ccn1` [Compound 180], the MIC (Mtb [1]) is reported as > 3 µg/mL.
For `CCOC(=O)NC(=O)c1ccsc1NC(=O)c1cncs1` [Compound 158], the MIC (Mtb [1]) was > 3 µg/mL.
For `CCOC(=O)NC(=O)c1ccsc1NC(=O)c1cnc2[nH]ccc2c1` [Compound 159], the “MIC (II)” value (Mtb [1]) was “C (key: A: <1 μg/mL; B: 1-3 μg/mL; C: >3 μg/mL)”.
`CCOC(=O)NC(=O)c1ccsc1NC(=O)c1ccc2c(c1)NC(=O)CS2` [Compound 9] showed an MIC (Mtb [1]) of 1 to 3 µg/mL (≈ 2.47 to 7.4 µM).
In the case of `CC(=O)Nc1cc(C(=O)Nc2sccc2C(=O)N(C)C)ccn1` [Compound 205], the MIC (Mtb [1]) is reported as > 3 µg/mL.
In the case of `CCOC(=O)NC(=O)c1ccsc1NC(=O)c1cnccn1` [Compound 166], the MIC (Mtb [1]) is reported as > 3 µg/mL.
With `CCOC(=O)NC(=O)c1ccccc1NC(=O)c1ccnc(NC(C)=O)c1` [Compound 187] the MIC (Mtb [1]) was > 3 µg/mL.
With `NC(=O)c1cnn(-c2ccccc2)c1NC(=O)c1nc2ccccc2s1` [Compound 179] the MIC (Mtb [1]) was > 3 µg/mL.
For `CCOC(=O)NC(=O)c1ccsc1NC(=O)c1cc2ccccc2n1C` [Compound 195], the MIC (Mtb [1]) was > 3 µg/mL.
With `CCOC(=O)NC(=O)c1ccsc1NC(=O)c1ccnc(OCC)c1` [Compound 149] the MIC (Mtb [1]) was > 3 µg/mL.
With `CCOC(=O)NC(=O)c1ccsc1NC(=O)c1ccnc(NC(=O)C(F)(F)F)c1` [Compound 193] the MIC (Mtb [1]) was > 3 µg/mL.
For `CCOC(=O)NC(=O)c1ccsc1NC(=O)c1ccc(C#N)cc1` [Compound 207], the MIC (Mtb [1]) was > 3 µg/mL.
For `CCOC(=O)NC(=O)c1ccsc1NC(=O)c1nc2c(N3CCN(C)CC3)ccnc2s1` [Compound 269], the CC50 (in vitro) was > 50 µg/mL, the MIC (Mtb [2]) was < 1 µg/mL and the MIC (Mtb [3]) was 5 to 25 µg/mL (≈ 10.5 to 52.7 µM).
In the case of `CCOC(=O)NC(=O)c1ccsc1NC(=O)c1nn(-c2ccccc2)nc1C` [Compound 138], the CC50 (in vitro) is reported as > 50 µg/mL, the MIC (Mtb [2]) is reported as > 3 µg/mL and the MIC (Mtb [3]) is reported as > 25 µg/mL.
For `CCOC(=O)NC(=O)c1ccsc1NC(=O)c1cncnc1` [Compound 164], the MIC (Mtb [1]) was > 3 µg/mL.
For `CCOC(=O)NC(=O)c1ccsc1NC(=O)c1cc(C(F)(F)F)nc2ccccc12` [Compound 117], the CC50 (in vitro) was < 25 µg/mL, the MIC (Mtb [2]) was > 3 µg/mL and the MIC (Mtb [3]) was > 25 µg/mL.
In the case of `COC(=O)NC(=O)c1ccsc1NC(=O)c1ccc(Oc2ccccc2)cc1` [Compound 200], the MIC (Mtb [1]) is reported as > 3 µg/mL.
With `CC(=O)Nc1cc(C(=O)Nc2sccc2S(=O)(=O)c2ccccn2)ccn1` [Compound 194] the MIC (Mtb [1]) was > 3 µg/mL.
In the case of `CCOC(=O)NC(=O)c1ccsc1NC(=O)c1cnc(N2CCOCC2)nc1` [Compound 152], the MIC (Mtb [1]) is reported as > 3 µg/mL.
For `CC(C)OC(=O)NC(=O)c1ccsc1NC(=O)c1nc2ccccc2o1` [Compound 397], the CC50 (in vitro) was < 25 µg/mL, the MIC (Mtb [2]) was < 1 µg/mL and the MIC (Mtb [3]) was > 25 µg/mL.
In the case of `CCOC(=O)NC(=O)c1ccsc1NC(=O)c1ccnc(NC(=O)OCc2ccccc2)c1` [Compound 154], the MIC (Mtb [1]) is reported as > 3 µg/mL.
In the case of `CCOC(=O)NC(=O)c1ccsc1NC(=O)c1nc2c(N3CCOCC3)nccc2s1` [Compound 248], the CC50 (in vitro) is reported as > 50 µg/mL, the MIC (Mtb [2]) is reported as < 1 µg/mL and the MIC (Mtb [3]) is reported as > 25 µg/mL.
With `CCOC(=O)NC(=O)c1ccsc1NC(=O)C1=Cc2cc(OC)ccc2OC1` [Compound 68] the CC50 (in vitro) was > 50 µg/mL, the MIC (Mtb [2]) was < 1 µg/mL and the MIC (Mtb [3]) was < 5 µg/mL.
For `CCOC(=O)NC(=O)c1ccsc1NC(=O)c1cn2c(n1)CCCC2` [Compound 309], the CC50 (in vitro) was < 25 µg/mL, the MIC (Mtb [2]) was 1 to 3 µg/mL (≈ 2.76 to 8.28 µM) and the MIC (Mtb [3]) was 5 to 25 µg/mL (≈ 13.8 to 69 µM).
With `CCOC(=O)NC(=O)c1ccsc1NC(=O)c1cc2ccccn2c1` [Compound 310] the CC50 (in vitro) was > 50 µg/mL, the MIC (Mtb [2]) was > 3 µg/mL and the MIC (Mtb [3]) was > 25 µg/mL.
With `O=C(NC(=O)c1ccsc1NC(=O)c1ccnc(NC(=O)N2CCOCC2)c1)OCCF` [Compound 48] the CC50 (in vitro) was > 50 µg/mL, the MIC (Mtb [2]) was < 1 µg/mL and the MIC (Mtb [3]) was > 25 µg/mL.
For `CCOC(=O)NC(=O)c1ccsc1NC(=O)c1nc2cnc(C)cc2s1` [Compound 94], the CC50 (in vitro) was > 50 µg/mL, the MIC (Mtb [2]) was < 1 µg/mL and the MIC (Mtb [3]) was > 25 µg/mL.
For `CCOC(=O)NC(=O)c1ccsc1NC(=O)c1noc(C)n1` [Compound 74], the CC50 (in vitro) was 25 to 50 µg/mL (≈ 77.1 to 154 µM), the MIC (Mtb [2]) was > 3 µg/mL and the MIC (Mtb [3]) was > 25 µg/mL.
With `CC(C)OC(=O)NC(=O)c1cc(F)sc1NC(=O)c1nc2cnccc2s1` [Compound 104] the CC50 (in vitro) was < 25 µg/mL, the MIC (Mtb [2]) was < 1 µg/mL and the MIC (Mtb [3]) was < 5 µg/mL.
In the case of `CCOC(=O)NC(=O)c1cc(CC(=O)OC)sc1NC(=O)c1nc2cnccc2s1` [Compound 276], the CC50 (in vitro) is reported as 25 to 50 µg/mL (≈ 55.7 to 111 µM), the MIC (Mtb [2]) is reported as > 3 µg/mL and the MIC (Mtb [3]) is reported as > 25 µg/mL.
With `CCOC(=O)c1c(NC(=O)c2ccnc(NC(C)=O)c2)sc2c1CCCC2` [Compound 186] the MIC (Mtb [1]) was > 3 µg/mL.
With `O=C(NC(=O)c1ccsc1NC(=O)c1cn2ccccc2n1)OC1CCCCC1` [Compound 381] the CC50 (in vitro) was < 25 µg/mL, the MIC (Mtb [2]) was > 3 µg/mL and the MIC (Mtb [3]) was > 25 µg/mL.
For `CCOC(=O)NC(=O)c1ccsc1NC(=O)C1COc2ccccc2O1` (stereo not shown) [Compound 92], the CC50 (in vitro) was 25 to 50 µg/mL (≈ 66.4 to 133 µM), the MIC (Mtb [2]) was > 3 µg/mL and the MIC (Mtb [3]) was 5 to 25 µg/mL (≈ 13.3 to 66.4 µM).
